Test results as given in EPA's ToxRefDB 2.

Assays:
[1] = test system: rat; conditions: Multigenerational reproductive toxicity study, sprague dawley, Oral, Feed, dose end: 2 generation
[2] = test system: mouse; conditions: Carcinogenicity; cd1; Oral; Feed; dose end: 18 month; group: systemic; systemic / pathology microscopic / stomach / hyperplasia
[3] = test system: rat; conditions: Chronic toxicity, fischer, Oral, Feed, dose end: 104 week, group: systemic
[4] = test system: rat; conditions: Combined chronic toxicity/carcinogenicity, fischer, Oral, Feed, dose end: 129 week, group: systemic
[5] = test system: dog; conditions: Chronic toxicity, beagle, Oral, Feed, dose end: 104 week, group: systemic
[6] = test system: rat; conditions: Neurotoxicity screening battery; sprague dawley; Oral; Feed; dose end: 90 day; group: cannot be grouped; systemic / in life observation / body weight / body weight + systemic / in life observation / food consumption / food consumption + systemic…
[7] = test system: mouse; conditions: Carcinogenicity, cd1, Oral, Feed, dose end: 104 week, group: systemic
[8] = test system: rat; conditions: Subchronic oral toxicity in rodents, sprague dawley, Feed, dose end: 90 day, group: systemic, systemic / pathology microscopic / stomach / hyperkeratosis + systemic / pathology microscopic / stomach / hyperplasia
[9] = test system: dog; conditions: Sub-acute repeat dose toxicity, beagle, Injection, Intravenous, dose end: 4 week, group: systemic
[10] = test system: rabbit; conditions: Prenatal developmental toxicity study, himalayan, Injection, Intravenous, dose end: 18 GD
[11] = test system: mouse; conditions: Fertility (Segment I); other; Injection; Intravenous; dose end: 3 GD; group: parental; systemic / in life observation / clinical signs / motor activity
[12] = test system: rat; conditions: Chronic toxicity, wistar, Oral, Gavage/Intubation, dose end: 6 month, group: systemic
[13] = test system: rat; conditions: Fertility (Segment I), wistar, Oral, Gavage/Intubation, dose end: 7 GD
[14] = test system: rat; conditions: Subchronic oral toxicity in rodents, wistar, Gavage/Intubation, dose end: 3 month, group: systemic
[15] = test system: rat; conditions: Fertility (Segment I), wistar, Injection, Intravenous, dose end: 26 PND
[16] = test system: mouse; conditions: Carcinogenicity, other, Oral, Gavage/Intubation, dose end: 106 week, group: systemic
[17] = test system: dog; conditions: Chronic toxicity, beagle, Oral, Capsule, dose end: 1 year, group: systemic
[18] = test system: dog; conditions: Chronic toxicity, beagle, Oral, Capsule, dose end: 6 month, group: systemic
[19] = group: offspring, systemic / in life observation / body weight / offspring (pup) weight
[20] = group: parental, systemic / pathology microscopic / stomach / hyperkeratosis + systemic / pathology microscopic / stomach / hyperplasia + systemic / …
[21] = systemic / pathology microscopic / kidney / hyperplasia + systemic / pathology microscopic / kidney / karyomegaly + systemic / in life …
[22] = systemic / pathology microscopic / kidney / karyomegaly
[23] = systemic / pathology microscopic / kidney / adenoma + systemic / pathology microscopic / kidney / carcinoma
[24] = systemic / pathology microscopic / kidney / adenoma + systemic / pathology microscopic / kidney / carcinoma + systemic / pathology …
[25] = systemic / clinical chemistry / bilirubin / total bilirubin
[26] = systemic / pathology microscopic / kidney / hyperplasia + systemic / pathology microscopic / stomach / carcinoma + systemic / pathology …
[27] = systemic / in life observation / clinical signs / vomitting + systemic / organ weight / prostate / nos
[28] = group: developmental, developmental / developmental malformation / general / crown-rump length + systemic / in life observation / body weight / fetal weight
[29] = group: maternal, systemic / in life observation / body weight / body weight gain + systemic / in life observation / clinical signs / [other] + systemic / in …
[30] = systemic / hematology / reticulocyte / reticulocyte + systemic / in life observation / clinical signs / teeth whitening + systemic / in life…
[31] = systemic / in life observation / clinical signs / tooth-broken
[32] = group: maternal, reproductive / reproductive performance / estrous cycle / corpora lutea + reproductive / reproductive performance / implantations / …
[33] = group: parental, systemic / in life observation / body weight / body weight + systemic / in life observation / clinical signs / ataxia + systemic / in life …
[34] = systemic / clinical chemistry / alkaline phosphatase (alp/alk) / alkaline phosphatase (alp/alk) + systemic / clinical chemistry / calcium / …
[35] = systemic / clinical chemistry / glucose / glucose + systemic / hematology / hemoglobin (hgb) / hemoglobin (hgb) + systemic / hematology / …
[36] = group: developmental, developmental / offspring survival late / viability index / viability index
[37] = group: maternal, reproductive / reproductive performance / pregnancy / pregnancy
[38] = group: offspring, systemic / in life observation / clinical signs / [other] + systemic / in life observation / clinical signs / abnormal gait + systemic / in …
[39] = group: offspring, systemic / in life observation / clinical signs / abnormal gait + systemic / in life observation / clinical signs / convulsions + systemic…
[40] = group: parental, systemic / in life observation / body weight / body weight gain + systemic / in life observation / clinical signs / [other] + systemic / in …
[41] = systemic / hematology / erythrocyte (rbc) count differential / erythrocyte (rbc) + systemic / hematology / hematocrit (hct) / hematocrit (…
[42] = systemic / hematology / leukocyte (wbc) count differential / leukocyte (wbc) + systemic / organ weight / kidney / relative to body weight
[43] = systemic / clinical chemistry / alanine aminotransferase (alt/sgpt) / alanine aminotransferase (alt/sgpt)
[44] = systemic / clinical chemistry / alanine aminotransferase (alt/sgpt) / alanine aminotransferase (alt/sgpt) + systemic / clinical chemistry / …
[45] = systemic / clinical chemistry / alanine aminotransferase (alt/sgpt) / alanine aminotransferase (alt/sgpt) + systemic / in life observation…

For `N#Cc1c(Cl)c(Cl)c(Cl)c(C#N)c1Cl` [Chlorothalonil], the LEL [1, 19] was 38 mg/kg/day, the LOAEL [1, 19] was 234 mg/kg/day and the NEL [1, 19] was < 38 mg/kg/day. For the same molecule, the NOAEL [1, 19] was 115 mg/kg/day, the LEL [1, 20] was 38 mg/kg/day and the LOAEL [1, 20] was 38 mg/kg/day. The NEL [1, 20] was < 38 mg/kg/day, the NOAEL [1, 20] was < 38 mg/kg/day and the LEL [2] was 1.9 mg/kg/day. The LOAEL [2] was 1.9 mg/kg/day, the NEL [2] was < 1.9 mg/kg/day and the NOAEL [2] was < 1.9 mg/kg/day. The LOAEL [3, 21] was 175 mg/kg/day, the NOAEL [3, 21] was 15 mg/kg/day and the LEL [3, 22] was 1.5 mg/kg/day. For the same molecule, the NEL [3, 22] was < 1.5 mg/kg/day, the LOAEL [4, 23] was 40 mg/kg/day and the NOAEL [4, 23] was < 40 mg/kg/day. For the same molecule, the LEL [4, 24] was 40 mg/kg/day, the NEL [4, 24] was < 40 mg/kg/day and the LEL [5, 25] was 1.8 mg/kg/day. The NEL [5, 25] was < 1.8 mg/kg/day, the LOAEL ([5]; systemic / pathology microscopic / kidney / vacuolization + systemic / clinical chemistry / bilirubin / total bilirubin) was 3.5 mg/kg/day and the NOAEL ([5]; systemic / pathology microscopic / kidney / vacuolization + systemic / pathology microscopic / kidney / pigmentation) was 1.8 mg/kg/day. The LEL [6] was 232 mg/kg/day, the LOAEL [6] was 232 mg/kg/day and the NEL [6] was 22 mg/kg/day. It also gave an NOAEL [6] of 22 mg/kg/day, an LOAEL ([7]; systemic / pathology microscopic / kidney / hyperplasia) of 26.2 mg/kg/day and an NEL [7, 26] of 1.5 mg/kg/day. The NOAEL [7, 26] was 6 mg/kg/day, the LEL ([7]; systemic / pathology microscopic / stomach / hyperkeratosis + systemic / pathology microscopic / stomach / hyperplasia) was 6 mg/kg/day and the LEL [8] was 2.3 mg/kg/day. For the same molecule, the LOAEL [8] was 2.3 mg/kg/day, the NEL [8] was < 2.3 mg/kg/day and the NOAEL [8] was < 2.3 mg/kg/day.
For `CC(C)c1ccc(C(=O)N=C(N)N)cc1S(C)(=O)=O.CS(=O)(=O)O` [Cariporide mesylate], the NEL ([9]; systemic / in life observation / clinical signs / vomitting) was 5 mg/kg/day, the LEL [9, 27] was 20 mg/kg/day and the LOAEL [9, 27] was > 20 mg/kg/day. The NOAEL [9, 27] was ≥ 20 mg/kg/day, the LEL [10, 28] was 40 mg/kg/day and the LOAEL [10, 28] was > 40 mg/kg/day. For the same molecule, the NEL [10, 28] was 16 mg/kg/day, the NOAEL [10, 28] was ≥ 40 mg/kg/day and the LOAEL [10, 29] was > 40 mg/kg/day. For the same molecule, the NEL [10, 29] was 6.3 mg/kg/day, the NOAEL [10, 29] was ≥ 40 mg/kg/day and the LEL ([10]; group: maternal, systemic / in life observation / clinical signs / piloerection + systemic / in life observation / food consumption / food consumption) was 16 mg/kg/day. For the same molecule, the LEL [11] was 150 mg/kg/day, the LOAEL [11] was > 150 mg/kg/day and the NEL [11] was 50 mg/kg/day. For the same molecule, the NOAEL [11] was ≥ 150 mg/kg/day, the LOAEL [12, 30] was 25 mg/kg/day and the NOAEL [12, 30] was 5 mg/kg/day. For the same molecule, the LEL [12, 31] was 5 mg/kg/day, the NEL [12, 31] was < 5 mg/kg/day and the LEL [13, 32] was 400 mg/kg/day. The LOAEL [13, 32] was > 400 mg/kg/day, the NEL [13, 32] was 100 mg/kg/day and the NOAEL [13, 32] was ≥ 400 mg/kg/day. For the same molecule, the LOAEL [13, 33] was > 400 mg/kg/day, the NEL [13, 33] was 25 mg/kg/day and the NOAEL [13, 33] was ≥ 400 mg/kg/day. The LEL ([13]; group: parental, systemic / in life observation / clinical signs / salivation) was 100 mg/kg/day, the LOAEL [14, 34] was > 1000 mg/kg/day and the NOAEL [14, 34] was ≥ 1000 mg/kg/day. For the same molecule, the LEL [14, 35] was 400 mg/kg/day, the NEL [14, 35] was < 400 mg/kg/day and the LEL [15, 36] was 125 mg/kg/day. For the same molecule, the LOAEL [15, 36] was > 125 mg/kg/day, the NEL [15, 36] was 25 mg/kg/day and the NOAEL [15, 36] was ≥ 125 mg/kg/day. The LEL [15, 37] was 125 mg/kg/day, the LOAEL [15, 37] was > 125 mg/kg/day and the NEL [15, 37] was 25 mg/kg/day. The NOAEL [15, 37] was ≥ 125 mg/kg/day, the LOAEL [15, 38] was > 125 mg/kg/day and the NOAEL [15, 38] was ≥ 125 mg/kg/day. The LEL [15, 39] was 5 mg/kg/day, the NEL [15, 39] was < 5 mg/kg/day and the LEL [15, 40] was 125 mg/kg/day. The LOAEL [15, 40] was > 125 mg/kg/day, the NEL [15, 40] was 25 mg/kg/day and the NOAEL [15, 40] was ≥ 125 mg/kg/day. For the same molecule, the LOAEL [16, 41] was > 500 mg/kg/day, the NOAEL [16, 41] was ≥ 500 mg/kg/day and the LEL [16, 42] was 50 mg/kg/day. The NEL [16, 42] was < 50 mg/kg/day, the LEL [17, 43] was 3.2 mg/kg/day and the NEL [17, 43] was < 3.2 mg/kg/day. For the same molecule, the LOAEL [17, 44] was > 20 mg/kg/day, the NOAEL [17, 44] was ≥ 20 mg/kg/day and the LEL [18, 43] was 8 mg/kg/day. The LOAEL [18, 45] was > 20 mg/kg/day, the NEL [18, 45] was 3.2 mg/kg/day and the NOAEL [18, 45] was ≥ 20 mg/kg/day.
